# Experiments:
# plasma TNFα = experiment: Plasma TNFα concentration, CMT1A mouse study (50 mg/kg twice daily); type: in vivo; settings: for Plasma TNFα concentration (Mean ± SEM): CMT1A mice
# Method: Animals were split in 3 groups (wild-type control (subcutaneous 0.9% NaCl), CMT1A-vehicle (subcutaneous 0.9% NaCl), CMT1A-human alpha-1 antitrypsin (subcutaneous, twice daily, 50 mg/kg per injection)) of 3 mice each (3 weeks old males of 18±2.5 g at the beginning of study) and all went through the following protocol after 7 days of acclimation on site.
# Starting from the age of 4 weeks, animals were subjected to blood samplings for the determination of interleukin-6 (IL-6) and tumor necrosing factor alpha (TNFα) levels, as described in FIG. 16.
# Human Schwann cells = experiment: TNFα-induced Schwann cell activation, target gene expression by qPCR; type: cell-based; settings: AAT 50 μM pre-treatment 24 hours, TNFα 10 ng/mL 24 hours
# Method: Human Schwann cells (P10351, Innoprot) were seeded in 12 well plates at 120000 cells per well in DMEM. Cells were pre-treated with either buffer (controls) or AAT (50 μM) for 24 hours before stimulation by TNFα (10 ng/mL). The plates were then incubated at 37° C. for 24 hours. The RNA was extracted and selected target gene expression was measured by qPCR.
# The genes evaluated for their regulation included the NF-κB early gene response NFKBIA, as well as the TNFα and TNFR1 genes. Expression of the gene coding for the IL-6 pro-inflammatory cytokine was also evaluated.
# CIDP mice = experiment: Sciatic nerve histology, CIDP mouse model; type: in vivo
# Method: C57BL/6 mice were received at 8 weeks of age and housed under controlled conditions for the duration of the study. Three groups of 4 animals each were assigned to the following subcutaneous treatments twice daily at 7:00 AM and 7:00 PM for 2 weeks, from 20 to 35 days after the start of disease induction: • Wild type (WT) mice receiving the vehicle, 0.9% NaCl (positive control) • CIDP mice receiving the vehicle, 0.9% NaCl (negative control) • CIDP mice receiving human AAT (AAT), 50 mg/kg per injection
# Disease induction consisted in subcutaneous injection of mouse sciatic nerve homogenate in phosphate buffer saline (PBS)+Freund's adjuvant mixture at 10 mL/kg. For each treatment, 3 different body sites injections were performed. Control mice also received three subcutaneous injections of PBS+Freund's adjuvant at the same 3 different body sites.
# On the first (Day 20) and last (Day 35) day of treatment, the neuromuscular and performance of animals was tested with a rotarod test, grip test and a sensory test using the Von Frey filament test, as well as sciatic nerve electrophysiology test. After the last treatment at Day 35, these tests were repeated, animals were sacrificed and the left sciatic nerve was sampled for histological evaluation of the number and size of […].
# HMC3-MHCII^Luc cells = experiment: IFNγ-mediated microglial activation, MHCII-driven luciferase activity; type: cell-based, human; settings: IFNγ 10 ng/ml; AATs 1, 10 or 25 μM day 0 to day 4
# Method: • A) Human microglial cells HMC3-MHCII^Luc cells were plated at day 0, activated with IFNγ at day1 until day 2 and measurement of the luciferase activity and cell viability were done at day 4. • B) Activation was measured by the activity of MHCII-driven luciferase and normalized to cell viability. Luciferase activity for all conditions is represented as fold of the untreated control. A potential effect of the highest concentration of the buffer used for drug presentation (IFNγ, AATs) was precluded. All conditions were performed in triplicates, error bars represent standard deviation (FIGS. 1A and 1B).
# (§1) • A) Human microglial HMC3-MHCII^Luc and HMC3MHCII^Luc; Ubi^AAT cells were plated at day 0, presented IFNγ at day 1 until day 2 and measurement of the luciferase activity and cell viability were done at day 4. • B) AATs were applied from day 0 to day 4 on HMC3-MHCII^Luc cells. Activation was measured by the activity of MHCII-driven luciferase and normalized to cell viability. […]
# as §1, with “HMC3-MHCII^Luc” for “HMC3-MHCII^Luc and HMC3MHCII^Luc; Ubi^AAT”, “represented as percentage of IFNγ control for all conditions.” for “normalized to cell viability.”
# [1] = CIDP mice, day 35, AAT 50 mg/kg sc twice daily
substance,measurement,setting,value
alpha1-antitrypsin (AAT) protein,effect on plasma TNFα levels,"plasma TNFα; CMT1A + AAT, day 14 and day 29",no effect
same,Plasma TNFα concentration (Mean ± SEM),plasma TNFα; Day 1 (baseline),2.94 ± 0.17 pg/mL
same,Plasma TNFα concentration (Mean ± SEM),plasma TNFα; Day 8,3.70 ± 0.41 pg/mL
same,Plasma TNFα concentration (Mean ± SEM),plasma TNFα; Day 14,5.15 ± 0.393 pg/mL
same,Plasma TNFα concentration (Mean ± SEM),plasma TNFα; Day 29,10.67 ± 0.833 pg/mL
same,NF-κb pathway transcripts,Human Schwann cells,downregulated
same,expression of genes modulated by TNF-induced oxidative stress response,Human Schwann cells,inhibited
same,axonal diameter compared to the CIDP+vehicle treated group,"CIDP mice; CIDP + AAT, day 35",significant increase
same,g-ratio compared to the CIDP+vehicle treated group,"CIDP mice; CIDP + AAT, day 35",decrease
same,total number of axons per surface compared to the vehicle treated group,"CIDP mice; CIDP + AAT, day 35",Slight but non-significant increase
same,"Sciatic nerve histology, Axonal diameter (Mean ± SEM)",CIDP mice; [1],3.82 ± 0.09 μm
same,"Sciatic nerve histology, Axons/100 μm^2 (Mean ± SEM)",CIDP mice; [1],26.00 ± 2.10
same,"Sciatic nerve histology, g-ratio (Mean ± SEM)",CIDP mice; [1],0.715 ± 0.008
same,IFNγ-mediated microglial activation (MHCII-driven luciferase activity),HMC3-MHCII^Luc cells,decreases

# From patent US20260028390A1, “ALPHA1-ANTITRYPSIN FOR USE IN THE TREATMENT OF DISEASES OR DISORDERS OF THE NERVOUS SYSTEM SUCH AS CHRONIC INFLAMMATORY DEMYELINATING POLYNEUROPATHY” (Ageronix SA, priority 2022, published 2026)
